The text below walks through data of patent US12157741B2, “Macrocyclic inhibitors of DYRK1A” (DANA-FARBER CANCER INSTITUTE, INC., priority 2018, dated 2024).

For assay [1], the target named is various enzymes (Homo sapiens, UniProt Q96RR4). It counts as binding. The conditions noted are these: compound 1 uM. The method, then:
(§1) Ambit profiling was conducted in accordance with the manufacturer's instructions.

For assay [2], the target named is various enzymes (Homo sapiens, UniProt P19525). It counts as binding. The conditions noted are these: compound 1 uM. Here is the method:
as §1

The target of assay [3] is various enzymes (Homo sapiens, UniProt Q86Z02). It counts as binding. The note with it: compound 1 uM. The method, then:
as §1

Assay [4] has as its target various enzymes (Homo sapiens, UniProt Q8N568). It counts as binding. The conditions noted are these: compound 1 uM. The method, then:
as §1

For assay [5], the target named is various enzymes (Homo sapiens, UniProt Q8TDX7). It counts as binding. The conditions noted are these: compound 1 uM. Here is the method:
as §1

For assay [6], the target named is various enzymes (Homo sapiens, UniProt Q13464). It counts as binding. The note with it: compound 1 uM. Here is the method:
as §1

Assay [7] addresses various enzymes (Homo sapiens, UniProt Q9UQB9). It counts as binding. The note with it: compound 1 uM. The method, then:
as §1

The target in assay [8] is various enzymes (Homo sapiens, UniProt O95819). It counts as binding. The note with it: compound 1 uM. Here is the method: as §1
Assay [9] deals with various enzymes (Homo sapiens, UniProt O00444). It counts as binding. The note with it: compound 1 uM. Here is the method: as §1
Assay [10] deals with various enzymes (Homo sapiens, UniProt P23458). It counts as binding. The note with it: compound 1 uM. Here is the method:
as §1

For assay [11], the target named is various enzymes (Homo sapiens, UniProt P00519, F317L). It counts as binding. The conditions noted are these: compound 1 uM. The method, then:
as §1

Assay [12] has as its target various enzymes (Homo sapiens, UniProt Q5S007). It counts as binding. The conditions noted are these: compound 1 uM. The method, then:
as §1

Assay [13] addresses various enzymes (Homo sapiens, UniProt Q6P3R8). It counts as binding. The note with it: compound 1 uM. The method, then:
as §1

In assay [14] the target is various enzymes (Homo sapiens, UniProt Q96BR1). It counts as binding. The conditions noted are these: compound 1 uM. The method, then: as §1
For assay [15], the target named is various enzymes (Homo sapiens, UniProt Q13976). It counts as binding. The conditions noted are these: compound 1 uM. The method, then:
as §1

For assay [16], the target named is T1, various enzymes (Homo sapiens, UniProt Q9H093).
T1 sequence (Q9H093 1-628): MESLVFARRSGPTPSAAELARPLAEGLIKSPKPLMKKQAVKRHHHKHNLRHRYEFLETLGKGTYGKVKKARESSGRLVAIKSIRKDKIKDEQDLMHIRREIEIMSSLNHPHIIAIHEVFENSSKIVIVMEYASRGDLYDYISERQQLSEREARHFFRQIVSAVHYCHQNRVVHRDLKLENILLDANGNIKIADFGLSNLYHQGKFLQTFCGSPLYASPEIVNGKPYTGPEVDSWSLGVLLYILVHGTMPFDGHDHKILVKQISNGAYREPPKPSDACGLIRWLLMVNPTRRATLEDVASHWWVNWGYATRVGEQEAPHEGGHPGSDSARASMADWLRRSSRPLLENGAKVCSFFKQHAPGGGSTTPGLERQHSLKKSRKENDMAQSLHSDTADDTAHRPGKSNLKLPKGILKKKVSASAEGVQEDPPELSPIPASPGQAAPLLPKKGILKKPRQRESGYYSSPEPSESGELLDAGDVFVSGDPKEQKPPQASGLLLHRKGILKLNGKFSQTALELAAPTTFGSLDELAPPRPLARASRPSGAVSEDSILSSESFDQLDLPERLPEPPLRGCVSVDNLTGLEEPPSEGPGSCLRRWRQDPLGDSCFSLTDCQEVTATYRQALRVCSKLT
The conditions noted are these: SNARK; 1 uM.
Description: (§2) Ambit profiling from Eurofins (formerly Discoverx) was conducted in accordance with the manufacturer's instructions.

Assay [17] addresses T2, various enzymes (Homo sapiens, UniProt Q6PHR2).
T2 sequence (Q6PHR2 1-472): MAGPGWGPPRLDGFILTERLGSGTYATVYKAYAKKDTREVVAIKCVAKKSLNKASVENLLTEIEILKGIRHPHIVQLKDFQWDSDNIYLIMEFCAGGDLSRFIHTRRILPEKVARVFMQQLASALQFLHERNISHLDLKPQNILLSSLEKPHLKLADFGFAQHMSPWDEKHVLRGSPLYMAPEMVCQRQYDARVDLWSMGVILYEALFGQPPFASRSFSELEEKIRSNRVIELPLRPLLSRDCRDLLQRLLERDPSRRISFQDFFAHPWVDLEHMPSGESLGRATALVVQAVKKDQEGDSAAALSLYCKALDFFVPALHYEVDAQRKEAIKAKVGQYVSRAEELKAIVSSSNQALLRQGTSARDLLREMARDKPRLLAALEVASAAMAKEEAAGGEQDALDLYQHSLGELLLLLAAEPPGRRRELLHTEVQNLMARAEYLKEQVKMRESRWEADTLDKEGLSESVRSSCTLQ
The note with it: ULK3; 1 uM.
Description: as §2

Assay [18] addresses various enzymes (Homo sapiens, UniProt P00533). The conditions noted are these: EGFR; 1 uM.
Description: as §2
Assay [19] has as its target various enzymes (Homo sapiens, UniProt P41240). The conditions noted are these: CSK; 1 uM.
Description: as §2
The target of assay [20] is various enzymes (Homo sapiens, UniProt P00533, DELINS747-751S). The note with it: EGFR(L747-T751del, Sins); 1 uM.
Description: as §2
Assay [21] concerns the target T3, various enzymes (Homo sapiens, UniProt Q9NWZ3).
T3 sequence (Q9NWZ3 1-460): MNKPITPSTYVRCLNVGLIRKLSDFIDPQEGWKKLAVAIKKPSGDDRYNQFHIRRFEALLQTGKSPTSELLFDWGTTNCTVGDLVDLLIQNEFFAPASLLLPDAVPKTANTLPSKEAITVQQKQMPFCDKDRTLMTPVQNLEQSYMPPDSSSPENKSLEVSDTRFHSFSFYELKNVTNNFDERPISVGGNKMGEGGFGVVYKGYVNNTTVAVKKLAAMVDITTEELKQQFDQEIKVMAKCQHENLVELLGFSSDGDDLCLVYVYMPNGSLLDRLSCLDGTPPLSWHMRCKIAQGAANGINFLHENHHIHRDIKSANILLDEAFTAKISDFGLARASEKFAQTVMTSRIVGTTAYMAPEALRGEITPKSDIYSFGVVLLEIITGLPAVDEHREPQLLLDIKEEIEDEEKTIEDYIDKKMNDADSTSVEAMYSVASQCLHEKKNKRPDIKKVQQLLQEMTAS
The note with it: IRAK4; 1 uM.
Description: as §2

Molecules are shown by their SMILES.

Chain of various enzymes (Homo sapiens, UniProt P23458) (P23458 whole entry): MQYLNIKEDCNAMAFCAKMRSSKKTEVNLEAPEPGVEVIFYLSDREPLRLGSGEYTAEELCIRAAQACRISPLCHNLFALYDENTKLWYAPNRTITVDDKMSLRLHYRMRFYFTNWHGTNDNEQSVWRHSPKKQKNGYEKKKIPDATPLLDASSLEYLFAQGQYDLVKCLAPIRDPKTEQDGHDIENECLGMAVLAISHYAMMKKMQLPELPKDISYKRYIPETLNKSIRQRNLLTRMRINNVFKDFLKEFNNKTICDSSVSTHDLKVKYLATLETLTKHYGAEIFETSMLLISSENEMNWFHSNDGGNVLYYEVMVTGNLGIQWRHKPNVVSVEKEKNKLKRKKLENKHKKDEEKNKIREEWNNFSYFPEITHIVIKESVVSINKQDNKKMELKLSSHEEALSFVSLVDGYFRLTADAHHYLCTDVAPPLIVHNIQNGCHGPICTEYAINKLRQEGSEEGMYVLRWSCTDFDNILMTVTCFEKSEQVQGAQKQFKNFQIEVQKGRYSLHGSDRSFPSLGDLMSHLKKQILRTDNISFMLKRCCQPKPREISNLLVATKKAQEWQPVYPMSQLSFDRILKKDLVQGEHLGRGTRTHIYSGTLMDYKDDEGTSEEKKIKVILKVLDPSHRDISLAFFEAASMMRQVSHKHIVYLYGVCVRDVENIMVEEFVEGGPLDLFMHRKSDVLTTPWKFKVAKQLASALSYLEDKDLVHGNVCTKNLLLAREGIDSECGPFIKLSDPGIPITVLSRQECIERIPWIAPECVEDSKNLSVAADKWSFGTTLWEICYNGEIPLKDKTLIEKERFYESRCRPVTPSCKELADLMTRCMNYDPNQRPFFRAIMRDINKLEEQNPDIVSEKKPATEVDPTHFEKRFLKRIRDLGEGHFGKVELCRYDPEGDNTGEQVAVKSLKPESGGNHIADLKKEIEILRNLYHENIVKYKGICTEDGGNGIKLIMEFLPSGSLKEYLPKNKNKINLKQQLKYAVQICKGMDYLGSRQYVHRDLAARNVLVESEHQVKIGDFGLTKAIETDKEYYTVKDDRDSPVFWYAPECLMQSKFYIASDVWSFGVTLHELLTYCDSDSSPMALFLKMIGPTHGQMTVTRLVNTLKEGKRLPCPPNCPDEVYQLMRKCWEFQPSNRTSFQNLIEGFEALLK
Chain of various enzymes (Homo sapiens, UniProt P00519, F317L) (P00519 whole entry F317L): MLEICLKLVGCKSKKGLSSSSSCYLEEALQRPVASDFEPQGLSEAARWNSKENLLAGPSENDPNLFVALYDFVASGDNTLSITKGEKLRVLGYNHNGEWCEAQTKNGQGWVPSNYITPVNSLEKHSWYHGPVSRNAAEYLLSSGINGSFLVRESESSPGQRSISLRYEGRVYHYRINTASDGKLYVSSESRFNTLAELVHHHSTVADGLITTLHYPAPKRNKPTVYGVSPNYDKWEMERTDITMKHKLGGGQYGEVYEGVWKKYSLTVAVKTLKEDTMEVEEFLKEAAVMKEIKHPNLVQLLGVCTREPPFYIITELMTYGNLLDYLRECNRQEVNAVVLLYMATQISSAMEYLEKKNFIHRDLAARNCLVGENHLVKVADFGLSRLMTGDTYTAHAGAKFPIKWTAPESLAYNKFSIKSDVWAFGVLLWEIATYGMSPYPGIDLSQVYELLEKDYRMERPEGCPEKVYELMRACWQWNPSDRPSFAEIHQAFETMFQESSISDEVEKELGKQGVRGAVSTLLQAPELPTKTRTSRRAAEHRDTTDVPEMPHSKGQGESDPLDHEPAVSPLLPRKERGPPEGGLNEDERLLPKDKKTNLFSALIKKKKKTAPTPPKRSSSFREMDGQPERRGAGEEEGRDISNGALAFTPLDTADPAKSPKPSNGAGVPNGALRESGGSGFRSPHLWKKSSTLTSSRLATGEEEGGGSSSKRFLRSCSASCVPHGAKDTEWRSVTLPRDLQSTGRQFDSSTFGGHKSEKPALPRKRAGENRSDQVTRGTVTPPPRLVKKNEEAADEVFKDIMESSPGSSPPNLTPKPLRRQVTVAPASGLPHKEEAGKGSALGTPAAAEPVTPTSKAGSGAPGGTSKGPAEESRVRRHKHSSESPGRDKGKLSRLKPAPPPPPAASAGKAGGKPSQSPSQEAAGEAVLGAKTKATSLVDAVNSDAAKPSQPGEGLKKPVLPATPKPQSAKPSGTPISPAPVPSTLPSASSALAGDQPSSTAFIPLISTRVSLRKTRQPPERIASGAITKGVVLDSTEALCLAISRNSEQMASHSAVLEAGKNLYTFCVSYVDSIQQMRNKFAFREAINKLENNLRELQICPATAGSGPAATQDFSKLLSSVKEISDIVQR
Chain of various enzymes (Homo sapiens, UniProt Q96RR4) (Q96RR4 whole entry): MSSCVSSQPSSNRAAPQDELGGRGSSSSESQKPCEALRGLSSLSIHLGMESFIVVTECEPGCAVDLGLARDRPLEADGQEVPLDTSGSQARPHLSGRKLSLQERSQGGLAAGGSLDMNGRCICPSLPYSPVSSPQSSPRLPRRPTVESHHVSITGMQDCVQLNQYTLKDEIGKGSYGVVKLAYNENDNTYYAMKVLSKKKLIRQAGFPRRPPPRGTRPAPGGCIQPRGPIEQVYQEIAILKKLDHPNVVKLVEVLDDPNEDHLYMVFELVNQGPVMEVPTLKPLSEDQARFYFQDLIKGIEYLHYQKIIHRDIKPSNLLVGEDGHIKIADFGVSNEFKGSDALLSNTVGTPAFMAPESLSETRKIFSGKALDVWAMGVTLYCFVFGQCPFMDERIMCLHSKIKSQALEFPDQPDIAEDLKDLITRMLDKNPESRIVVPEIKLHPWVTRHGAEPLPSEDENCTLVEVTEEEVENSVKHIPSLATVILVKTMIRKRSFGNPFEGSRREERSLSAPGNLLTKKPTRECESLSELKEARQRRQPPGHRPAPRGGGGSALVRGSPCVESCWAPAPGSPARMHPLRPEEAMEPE
Chain of various enzymes (Homo sapiens, UniProt Q8N568) (Q8N568 whole entry): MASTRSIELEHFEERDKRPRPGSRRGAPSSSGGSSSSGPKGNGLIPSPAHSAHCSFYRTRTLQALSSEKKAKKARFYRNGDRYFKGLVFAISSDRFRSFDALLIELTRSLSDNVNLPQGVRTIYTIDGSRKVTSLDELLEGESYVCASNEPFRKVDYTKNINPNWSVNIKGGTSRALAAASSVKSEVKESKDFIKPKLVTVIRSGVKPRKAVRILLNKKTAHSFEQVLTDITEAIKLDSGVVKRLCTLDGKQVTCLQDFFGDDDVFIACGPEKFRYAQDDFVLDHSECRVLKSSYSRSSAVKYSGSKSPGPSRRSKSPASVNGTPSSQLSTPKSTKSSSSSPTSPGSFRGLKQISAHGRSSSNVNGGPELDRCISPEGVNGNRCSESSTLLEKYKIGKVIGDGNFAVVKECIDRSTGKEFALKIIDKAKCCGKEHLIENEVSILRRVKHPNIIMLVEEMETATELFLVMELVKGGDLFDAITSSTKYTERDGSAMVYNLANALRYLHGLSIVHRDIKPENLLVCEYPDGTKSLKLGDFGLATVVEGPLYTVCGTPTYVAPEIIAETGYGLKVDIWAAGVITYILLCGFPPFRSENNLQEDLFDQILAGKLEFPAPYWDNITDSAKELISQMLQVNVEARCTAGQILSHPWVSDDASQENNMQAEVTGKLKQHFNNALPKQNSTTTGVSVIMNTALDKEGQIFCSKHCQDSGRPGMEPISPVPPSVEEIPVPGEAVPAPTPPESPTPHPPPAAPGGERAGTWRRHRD
Chain of various enzymes (Homo sapiens, UniProt Q86Z02) (Q86Z02 whole entry): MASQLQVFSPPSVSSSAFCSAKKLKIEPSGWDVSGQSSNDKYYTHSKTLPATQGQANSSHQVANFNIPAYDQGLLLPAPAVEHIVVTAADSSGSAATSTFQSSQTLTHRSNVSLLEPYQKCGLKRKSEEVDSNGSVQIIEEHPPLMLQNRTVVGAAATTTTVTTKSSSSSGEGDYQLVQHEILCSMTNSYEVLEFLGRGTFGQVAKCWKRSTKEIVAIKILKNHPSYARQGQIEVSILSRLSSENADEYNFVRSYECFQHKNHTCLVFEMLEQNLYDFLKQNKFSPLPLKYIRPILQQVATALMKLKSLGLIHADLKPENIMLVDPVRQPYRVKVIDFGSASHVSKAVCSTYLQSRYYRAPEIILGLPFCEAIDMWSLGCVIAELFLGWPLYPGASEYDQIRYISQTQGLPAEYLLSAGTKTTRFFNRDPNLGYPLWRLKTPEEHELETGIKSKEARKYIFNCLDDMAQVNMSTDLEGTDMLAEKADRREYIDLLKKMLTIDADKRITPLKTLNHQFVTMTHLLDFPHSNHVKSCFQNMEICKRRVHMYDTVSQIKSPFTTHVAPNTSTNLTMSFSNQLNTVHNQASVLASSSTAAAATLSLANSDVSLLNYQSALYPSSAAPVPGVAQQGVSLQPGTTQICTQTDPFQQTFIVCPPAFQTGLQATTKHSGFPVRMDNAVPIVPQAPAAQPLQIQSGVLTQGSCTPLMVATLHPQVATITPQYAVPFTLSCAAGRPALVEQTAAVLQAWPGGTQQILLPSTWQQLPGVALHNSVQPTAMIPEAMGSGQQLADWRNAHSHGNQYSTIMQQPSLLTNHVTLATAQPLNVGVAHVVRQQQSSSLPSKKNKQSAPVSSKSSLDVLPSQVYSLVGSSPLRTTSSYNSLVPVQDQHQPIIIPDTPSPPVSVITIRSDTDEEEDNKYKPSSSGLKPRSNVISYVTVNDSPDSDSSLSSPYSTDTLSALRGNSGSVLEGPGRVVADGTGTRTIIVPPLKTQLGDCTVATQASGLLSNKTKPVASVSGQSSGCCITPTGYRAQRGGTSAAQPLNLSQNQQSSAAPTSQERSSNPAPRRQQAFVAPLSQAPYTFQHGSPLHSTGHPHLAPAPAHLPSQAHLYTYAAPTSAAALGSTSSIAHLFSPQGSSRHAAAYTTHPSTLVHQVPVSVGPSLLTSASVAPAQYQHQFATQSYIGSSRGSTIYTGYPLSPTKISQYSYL

In the case of `COc1c2c(nn1C)CN(C(C)C)C(=O)CCCn1cc(c(C(F)(F)F)n1)-c1c[nH]c3ncc-2cc13` [Compound 50, (Z)-5-isopropyl-35-methoxy-31-methyl-13-(trifluoromethyl)-11H,21H,31H-5-aza-2(3,5)-pyrrolo[2,3-b]pyridina-1(4,1),3(4,3)-dipyrazolacyclononaphan-6-one], the “Ambit profiling: CAMKK2” value in [1] came to 5.8. Also, the “Ambit profiling: PRKR” value in assay [2] is 84. For the same compound, the “Ambit profiling: HIPK1” value in assay [3] was determined as 13. The “Ambit profiling: DCAMKL2” value in [4] is recorded as 90. Also, the “Ambit profiling: NEK7” value in assay [5] is 68. Besides, the “Ambit profiling: ROCK1” value in assay [6] is 79. Moreover, the “Ambit profiling: AURKC” value in assay [7] was determined as 39. Also, the “Ambit profiling: MAP4K4” value in assay [8] turned out to be 3. Further, the “Ambit profiling: PLK4” value in [9] came to 10. In assay [10], the “Ambit profiling: JAK1(JH1domain-catalytic)” value came to 100 and the “Ambit profiling: JAK1(JH2domain-pseudokinase)” value was 81. Besides, in assay [11], the “Ambit profiling: ABL1(F317L)-nonphosphorylated” value is listed as 35 and the “Ambit profiling: ABL1(F317L)-phosphorylated” value is reported as 2.5. The “Ambit profiling: LRRK2” value in assay [12] was 50. Further, in assay [13], the “Ambit profiling: NEK5” value worked out at 64. Besides, the “Ambit profiling: SGK3” value in [14] is 50. In addition, the “Ambit profiling: PRKG1” value in [15] was 100.
As for `CC(C)N1Cc2nn(C)cc2-c2cnc3[nH]cc(c3c2)-c2cn(nc2C(F)(F)F)CCCC1=O` [Compound 45, (Z)-5-isopropyl-31-methyl-13-(trifluoromethyl)-11H,21H,31H-5-aza-2(3,5)-pyrrolo[2,3-b]pyridina-1(4,1),3(4,3)-dipyrazolacyclononaphan-6-one], the “Ambit profiling: CAMKK2” value in assay [1] came to 5.8. In addition, the “Ambit profiling: PRKR” value in assay [2] was 71. The “Ambit profiling: HIPK1” value in assay [3] came out at 6.5. In [4], the “Ambit profiling: DCAMKL2” value turned out to be 100. Moreover, the “Ambit profiling: NEK7” value in [5] is on record as 97. Further, the “Ambit profiling: ROCK1” value in [6] worked out at 95. For the same compound, the “Ambit profiling: AURKC” value in assay [7] is given as 20. Besides, the “Ambit profiling: MAP4K4” value in assay [8] is reported as 3.5. Moreover, the “Ambit profiling: PLK4” value in assay [9] is reported as 29. Besides, in assay [10], the “Ambit profiling: JAK1(JH1domain-catalytic)” value turned out to be 36 and the “Ambit profiling: JAK1(JH2domain-pseudokinase)” value was determined as 65. For the same compound, in [11], the “Ambit profiling: ABL1(F317L)-nonphosphorylated” value turned out to be 55 and the “Ambit profiling: ABL1(F317L)-phosphorylated” value is recorded as 25. Moreover, the “Ambit profiling: LRRK2” value in assay [12] worked out at 44. In [13], the “Ambit profiling: NEK5” value turned out to be 100. Also, the “Ambit profiling: SGK3” value in assay [14] is reported as 30. For the same compound, the “Ambit profiling: PRKG1” value in assay [15] is recorded as 100.
Consider `CN1Cc2nn(C)cc2-c2cnc3[nH]cc(c3c2)-c2cnn(c2)CCCC1=O` [Compound 41, (Z)-31,5-dimethyl-11H,21H,31H-5-aza-2(3,5)-pyrrolo[2,3-b]pyridina-1(4,1),3(4,3)-dipyrazolacyclononaphan-6-one], for which the Ambit profiling turned out to be 4.3 in assay [16]; 5.6 in assay [17]; 86 in [18]; 63 in assay [19]; 100 in [20]; 12 in assay [21].
With `CN1Cc2nn(C)c(C#N)c2-c2cnc3[nH]cc(c3c2)-c2cn(nc2C(F)(F)F)CCCC1=O` [Compound 48, (Z)-31,5-dimethyl-6-oxo-13-(trifluoromethyl)-11H,21H,31H-5-aza-2(3,5)-pyrrolo[2,3-b]pyridina-1(4,1),3(4,3)-dipyrazolacyclononaphane-35-carbonitrile], the Ambit profiling in assay [16] is reported as 100; in assay [17] it was 97; in assay [18], 76; in assay [19], 95; in assay [20] it was 50; in [21], 100.
